From US7303876B2 (Applera Corporation, priority 2000, dated 2007)
Where two headings read alike, the source gives them in different places. Values belong to the compound of their own block, whether it stands above or below them.

Legend:
[1] = test system: Liver tissue; assay: Liver tissue disaggregation by 1% surfactant with or without Proteinase K at 60° C.; parameters: Tissue Disaggregation: scale not given here; conditions: for Tissue Disaggregation: 60° C., 1% surfactant
Description: To evaluate the ability of various cationic surfactants to increase the digestion of tissue by Proteinase K, liver slices were digested using reaction compositions including one of the sixteen surfactants (shown in Table 4), both with and without Proteinase K. The reducing agent dithiothreitol (DTT) was included to evaluate the effect of reducing conditions on tissue digestion. […] One of the sixteen surfactants was added to one pair of tubes to yield a final concentration of 1% surfactant. The seventeenth pair of tubes served as non-surfactant controls. One milligram (mg) of Proteinase K was added to one tube of each of the seventeen pairs.
PK=presence or absence of Proteinase K in the reaction composition; Y=Proteinase K was present; N=Proteinase K was not present in the reaction composition.

[2] = test system: Liver tissue; assay: Nucleic acid release from liver slices, pH 6, 45° C., 30 minutes, surfactants and additives; conditions: for amount of nucleic acid released in comparison with surfactant without an additive: FIG. 7
Description: To compare CTACl to CTAB, those two surfactants were evaluated in parallel along with hexadecyltrimethylammonium bromide (HDTAB), hexadecyltrimethylammonium chloride (HDTACl), and Sarkosyl. Three additives, phenylglyoxal, acridine orange (e.g., Sigma #A6014), and 1-methyl-2-pyrolidinone, were also evaluated. Phenylglyoxal was tested to determine if it would reduce RNAse activity. […] 1-Methyl-2-pyrrolidinone was tested to see if it would enhance solubility of the sample by various reaction compositions.
Slices of liver-tissue (100-200 mg/sample) were placed into twenty-one Eppendorf tubes. Four hundred microliters of a reaction composition, comprising 100 mM MES, pH 6, 20 mM CaCl2, and 1 mg Proteinase K, was added to each tube.
(§1) The tubes were incubated at 45° C. for 30 minutes with mixing (Eppendorf Thermomixer, Model 5436). Surfactant: protease complexes were solubilized using methods the same as or similar to those described in Example 7. Remaining tissue fragments were removed by centrifugation using methods the same as or similar to those described in Example 7. The supernatant was phenol extracted, isopropanol precipitated, and ethanol washed using methods the same as or similar to those described in Example 6.

[3] = Solubility of 1% cationic surfactants in 5M chaotropic salt solutions containing 2% Tween 20
Source text: The solubilities of several cationic surfactants were examined in different chaotropic salt solutions. The cationic surfactants examined were cetyltrimethylammonium bromide (CTAB), cetyltrimethylammonium chloride (CTACl), tetradecyltrimethylammonium bromide (TTAB), tetradecyltrimethylammonium chloride (TTACl), dodecyltrimethylammonium bromide (DTAB), dodecyltrimethylammonium (DTACl), dodecylethyidimethylammonium bromide (DEDTAB), decyltrimethylammonium bromide (D10TAB), and dodecyltriphenylphosphonium bromide (DTPB). Each of the cationic surfactants tested was presented in a 1% concentration. Each of the cationic surfactants was examined in a 5M solution of one of the chaotropic salts containing 2% Tween 20. Each cationic surfactant and salt combination was tested at pH 6 (50 mM MES), pH 8 (50 mM Tris-HCl), and pH 10 (50 mM AMP).

[4] = test system: Liver tissue; assay: Integrity of nucleic acid released from liver slices with aurintricarboxylic acid, 55° C., 30 minutes; conditions: 1% surfactant, FIG. 11
Description: Slices of liver tissue (77-186 mg/sample) were placed into twenty-one Eppendorf tubes. To each tube was added 400 μL of a reaction composition comprising 50 mM MES, pH 6.0, 20 mM CaCl2, and additional components as shown in Table 10.
as §1, with “55°” for “45°”, “C.” for “C. for 30 minutes”, “5436) for 30 minutes. The resulting surfactant-protease complex was” for “5436). Surfactant: protease complexes were”, “Undigested” for “Remaining”, “precipitated” for “precipitated,”

[5] = test system: Liver tissue; assay: Nucleic acid release from liver slices, pH 6, 45° C., 20 minutes, surfactants and additives; conditions: with Proteinase K, FIG. 5
Description: The results from Example 6 indicate that there was significant nuclease activity present in the sample. To reduce the nucleolytic activity of endogenous RNAses, the pH of the reaction composition was lowered to approximately 6.0 and the incubation temperature was decreased to 45° C. Several additives, including phenylglyoxal (Aldrich #14243-3), 1-methyl-2-pyrolidinone, RNA Later (Ambion, #7020), and Streck Tissue Fixitive (Streck Laboratories, #265138) were also tested to evaluate their effect on endogenous RNAse activity in these reaction compositions. Phenylglyoxal is known to reduce ribonuclease activity (see Takahashi, The Structure And Funtion Of Ribonuclease T1. XI. Modification Of The Single Arginine Residue In Ribonuclease T1 By Phenylglyoxal And Glyoxal, J. Biochem (Japan) 68:659-664, 1970). The product literature for RNA Later claims that the reagent stabilizes RNA in tissue and Streck Tissue Fixative is believed to preserve the integrity of tissue.
Slices of liver tissue (100-200 mg/sample) were placed into nineteen Eppendorf tubes. Four hundred microliters of a reaction composition comprising 100 mM MES (Sigma #M-5287), pH 6, 20 mM CaCl2, and 1 mg Proteinase K, was added to each tube.
The tubes were incubated at 45° C. for 20 minutes with mixing (Eppendorf Thermomixer, Model 5436). […] Undigested tissue fragments were removed by centrifugation using the methods the same as or similar to those discussed in Example 6. The supernatant was phenol extracted (saturated with 10 mM Tris HCl , pH 8, 1 mM EDTA; Sigma #P-4557), isopropanol precipitated (Aldrich #19076-4), and ethanol washed using methods the same as or similar to those described in Example 6.

[6] = test system: slices of liver; assay: Maceration of liver slices by reaction compositions at 65° C.; conditions: 65° C.
Description: Initially, a series of reaction compositions were analyzed for their ability to disaggregate a biological sample, e.g., slices of liver. These reaction compositions comprised 100 mM Tris, pH 8.0, 20 mM dithiothreitol (DTT), and optionally,1 mg/ml Proteinase K, surfactants (e.g., cationic, nonionic and anionic detergents), chaotropes, or the additive 1-methyl-2-pyrollidinone (Sigma). Each reaction compositions was placed in a tube with a slice of liver and then incubated at 65° C. The tubes were observed periodically to determine which reaction compositions were able to efficiently macerate the sample.

[7] = Solubility of surfactants (0.5% Sarkosyl, LDS, SDS, CTAB; 5.0% others) in salt solutions; conditions: pH 6
Description: In certain instances, the solubility of detergents in high salt may relate to on the composition of the salt and the detergent itself. A mixing experiment was performed to examine the solubility of a variety of anionic, cationic, and nonionic surfactants in different salt compositions. […] The salt solutions contained Lil, Nal, KI, Rbl, Csl , GuSCN, GuHCl, or NaClO4, at pH 6.0 or 10.0. […] The solubility of the surfactants was scored as either soluble or insoluble. The solubility of the surfactant in the salt solution was determined initially by visual observations for cloudiness or precipitate formation. The resulting solutions were also centrifuged to verify the absence of a precipitate by the absence of a precipitate pellet.

[8] = molecular target: T1, Proteinase K (Parengyodontium album, UniProt P06873); assay: Effect of surfactants on Proteinase K digestion of dye-labeled casein substrate; type: biochemical; conditions: 1% surfactant, 60° C., Proteinase K 0.005-20 μg/ml
T1 construct: purchased Ambion 2546
Description: To test the effect of cationic surfactants on the activity of Proteinase K, a series of reaction compositions were prepared as follows. Reaction compositions comprised: Casein BoDipy conjugate (1 μg, 10 ng/μL), 10 mM Tris, pH 8, 20 mM CaCl2, 1% surfactant (shown in Table 2 below) and a dilution series of Proteinase K at concentrations of 20 μg/ml, 5 μg/ml, 1.25 μg/ml, 0.31 μg/ml, 0.078 μg/ml, 0.02 μg/ml and 0.005 μg/ml. […] Reaction tubes were incubated at 60° C. in a 96-well optical plate (MicroAmp® Optical 96-Well Reaction Plate, Applied Biosystems) and the amount of released fluorescence was measured at the indicated time points using an ABI Prism 7700.

[9] = Fifteen Minutes Incubation, Proteinase K not present (N)
[10] = Fifteen Minutes Incubation, Proteinase K present (Y)
[11] = Fifty-Two Minutes Incubation, Proteinase K not present (N)
[12] = Fifty-Two Minutes Incubation, Proteinase K present (Y)
[13] = 5M chaotropic salts, 2% Tween 20

T1 sequence (P06873 106-384): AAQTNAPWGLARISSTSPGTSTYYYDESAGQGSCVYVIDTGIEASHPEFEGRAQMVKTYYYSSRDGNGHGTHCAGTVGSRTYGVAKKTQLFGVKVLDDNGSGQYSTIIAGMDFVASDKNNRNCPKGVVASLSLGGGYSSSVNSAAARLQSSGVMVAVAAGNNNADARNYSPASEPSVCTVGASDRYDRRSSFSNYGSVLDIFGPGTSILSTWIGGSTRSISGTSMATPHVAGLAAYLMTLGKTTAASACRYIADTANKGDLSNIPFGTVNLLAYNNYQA

SMILES: CCCCCCCCCCCCCCCC[N+](C)(C)C.[Br-] [Hexadecyltrimethylammonium bromide, hexadecyltrimethylammonium bromide]
Tissue Disaggregation [1, 9]: 0 | Tissue Disaggregation [1, 10]: 0 | Tissue Disaggregation [1, 11]: 0 | Tissue Disaggregation [1, 12]: 1 | high molecular weight nucleic acid by gel electrophoresis ([2]; all reaction compositions containing the surfactant, FIG. 8): high molecular weight nucleic acid was apparent

relative solubility in chaotropic salt solutions (in words) [3]: more soluble than larger surfactants
SMILES: CCCCCCCCCCCC[P+](c1ccccc1)(c1ccccc1)c1ccccc1.[Br-] [DTPB, dodecyltriphenylphosphonium bromide]

relative solubility in chaotropic salt solutions (in words) [3]: more soluble than larger surfactants
SMILES: CCCCCCCCCC[N+](C)(C)C.[Br-] [Sample D10TAB, decyltrimethylammonium bromide]

SMILES: CCCCCCCCCCCCCCCC[N+](C)(C)C.[Cl-] [CTACl, cetyltrimethylammonium chloride]
nucleic acid released, surfactant in reaction composition with aurintricarboxylic acid [4]: released a large amount of high integrity nucleic acid | high molecular weight nucleic acid by gel electrophoresis ([2]; with either 1-methy-2-pyrolidinone or acridine orange): High molecular weight nucleic acid was also present | release of A260 absorbing material from the sample [5]: released A260 absorbing material

SMILES: CCCCCCCCCCCC[N+](C)(C)C.[Cl-] [DTACl, dodecyltrimethylammonium chloride]
relative solubility in chaotropic salt solutions (in words) [3, 13]: more soluble than larger surfactants

SMILES: CN1CCCC1=O [1-methyl 2-pyrrolidinone, 1-methyl-2-pyrolidinone]
maceration of liver slice ([6]; No Proteinase K, 16-24 hr, additive 2%): 0% | amount of nucleic acid released in comparison with surfactant without an additive ([2]; 10% additive with 1% CTACl): greater | amount of nucleic acid released in comparison with surfactant without an additive ([2]; 10% additive with 1% HDTAB): less

SMILES: CCCCCCCCCCCCCCCC[N+](C)(C)C.[Br-] [CTAB, cetyltrimethylammonium bromide]
Tissue Disaggregation [1, 9]: 0 | Tissue Disaggregation [1, 10]: 4 | Tissue Disaggregation [1, 11]: 0 | Tissue Disaggregation [1, 12]: 4 | disaggregation of the tissue sample (in words) ([1]; combination with Proteinase K, 15 and 52 minutes): total disaggregation | disaggregation of the tissue sample (in words) ([1]; surfactant alone, no Proteinase K): no apparent sample disaggregation | maceration of liver slice ([6]; 1 mg/ml Proteinase K, 16-24 hr, additive 0.1%): 100% | maceration of liver slice ([6]; 1 mg/ml Proteinase K, 16-24 hr, additive 1%): 100% | maceration of liver slice ([6]; 1 mg/ml Proteinase K, 1 hr, additive 0.1%): 100% | maceration of liver slice ([6]; 1 mg/ml Proteinase K, 1 hr, additive 1%): 100% | ability to macerate the liver sample (in words) [6]: most effectively macerated the sample | effect on the proteolytic activity of Proteinase K ([6]; liver slices): appeared to enhance the proteolytic activity of Proteinase K | Solubility of surfactant [7]: S | nucleic acid released, surfactant in reaction composition with aurintricarboxylic acid [4]: released a large amount of high integrity nucleic acid | release of A260 absorbing material from the sample [5]: released A260 absorbing material

SMILES: CCCCCCCCCCCCOS(=O)(=O)[O-].[Na+] [SDS, sodium dodecyl sulfate]
Tissue Disaggregation [1, 9]: 0 | Tissue Disaggregation [1, 10]: 3 | Tissue Disaggregation [1, 11]: 0 | Tissue Disaggregation [1, 12]: 3 | maceration of liver slice ([6]; 1 mg/ml Proteinase K, 2-5 hr, additive 1%): 50% | maceration of liver slice ([6]; No Proteinase K, 2-5 hr, additive 1%): 0% | effect on Proteinase K activity on the casein substrate [8]: enhances the activity of Proteinase K | nucleic acid released, surfactant in reaction composition with aurintricarboxylic acid [4]: less nucleic acid was released | release of A260 absorbing material from the sample [5]: released A260 absorbing material

SMILES: CCCCCCCCCCCC[N+](C)(C)CC.[Br-] [DEDTAB, dodecylethyldimethylammonium bromide]
relative solubility in chaotropic salt solutions (in words) [3, 13]: more soluble than larger surfactants

SMILES: CCCCCCCCCCCC(=O)N(C)CC(=O)[O-].[Na+] [Sarkosyl, sodium N-lauroylsacrosinate]
maceration of liver slice ([6]; No Proteinase K, 72 hr, additive 2%): 0% | release of A260 absorbing material from the sample [5]: released A260 absorbing material
